Source: patent US20220378923A1, “BET DEGRADER” (KYOWA KIRIN CO., LTD., priority 2019, published 2022)

How the values were obtained:
[1] = target: T1, interaction between BRD2 and E3 ligase DCAF16 (Homo sapiens, UniProt P25440); assay: Verification of BET-DCAF16 interaction, comparative test with known compounds (Test Example 8); format: cell-based; conditions: test compound 1.0 μmol/L; HEK293 cells expressing Nluc-BRD2 and DCAF16-HaloTag; MLN4924 instead of bortezomib; substrate diluted 200-fold
T1 construct: expressed in transfected cells; host or cells: HEK293
T1 sequence (P25440 whole entry): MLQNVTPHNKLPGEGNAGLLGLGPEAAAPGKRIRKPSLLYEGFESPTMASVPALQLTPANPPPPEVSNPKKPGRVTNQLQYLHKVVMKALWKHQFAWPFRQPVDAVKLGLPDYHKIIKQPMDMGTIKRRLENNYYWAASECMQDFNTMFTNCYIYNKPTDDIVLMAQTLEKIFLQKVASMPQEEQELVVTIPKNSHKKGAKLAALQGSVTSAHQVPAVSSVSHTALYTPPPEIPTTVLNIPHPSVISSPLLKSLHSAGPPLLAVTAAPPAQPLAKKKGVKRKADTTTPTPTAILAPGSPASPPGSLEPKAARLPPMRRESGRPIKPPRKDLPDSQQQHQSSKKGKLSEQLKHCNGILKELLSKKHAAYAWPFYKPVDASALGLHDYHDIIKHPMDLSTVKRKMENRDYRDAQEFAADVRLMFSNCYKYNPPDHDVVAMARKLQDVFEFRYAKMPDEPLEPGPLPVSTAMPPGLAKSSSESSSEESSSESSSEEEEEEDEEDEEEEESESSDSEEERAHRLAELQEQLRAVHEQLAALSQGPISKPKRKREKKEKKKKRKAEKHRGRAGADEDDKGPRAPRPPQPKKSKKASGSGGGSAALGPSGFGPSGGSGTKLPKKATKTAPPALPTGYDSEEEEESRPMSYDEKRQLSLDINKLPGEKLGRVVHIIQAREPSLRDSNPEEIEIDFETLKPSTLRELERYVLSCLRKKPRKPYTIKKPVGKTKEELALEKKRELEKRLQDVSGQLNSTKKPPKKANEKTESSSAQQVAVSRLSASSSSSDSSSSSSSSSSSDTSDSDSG
T1 sequence (Q9NXF7 whole entry partner): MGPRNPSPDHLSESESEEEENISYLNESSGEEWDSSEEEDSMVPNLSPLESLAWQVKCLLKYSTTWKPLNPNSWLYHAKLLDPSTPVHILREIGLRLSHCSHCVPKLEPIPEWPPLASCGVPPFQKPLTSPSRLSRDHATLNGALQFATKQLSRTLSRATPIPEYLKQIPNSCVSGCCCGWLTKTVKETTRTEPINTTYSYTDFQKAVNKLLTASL
Procedure: Cultured HEK293 cells were washed with DPBS, no calcium, no magnesium (DPBS: Code No. 14190144, Thermo Fisher Scientific) and harvested using TrypLE™ Express Enzyme (1×), phenol red (TrypLE: Code No. 12605036, Thermo Fisher Scientific), and prepared to be 4.0×10^5 cells/mL in DMEM. A volume of 12 mL of the cell suspension was seeded in a Falcon® 100 mm×20 mm cell culture dish and cultured in a carbon dioxide gas incubator at 37° C. for 6 hours. For one dish, 12 μg of pFC27K_DCAF16, 0.12 μg of p FN31A_BRD2, 48 μL of FuGENE® HD Transfection Reagent (Code No. E2312, Promega) were added to 600 μL of Opti-MEM™ I Reduced Serum Medium, no phenol red (Opti-MEM: Code No. 11058021, Thermo Fisher Scientific) and mixed. The mixture was allowed to stand for 15 minutes and added to HEK293 cells. After 20 hours, the cells were washed with DPBS, no calcium, no magnesium, harvested from the dish using TrypLE, and then neutralized in DMEM. After centrifugation, the supernatant was discarded, and the cells were prepared to be 2.2×10^5 cells/mL using Opti-MEM containing 4% FBS. HaloTag® NanoBRET™ 618 Ligand contained in NanoBRET™ Nano-Glo® Detection System (Code No. N1662, Promega) and bortezomib as a proteasome inhibitor were added to be a 1000-fold dilution. In addition, a group was prepared to which DMSO was added instead of HaloTag® NanoBRET™ 618 Ligand. 90 μL of the cell suspension was seeded in CulturPlate-96 (Code No. 6005688, PerkinElmer), and allowed to stand in a carbon dioxide gas incubator at 37° C. for 30 minutes. A volume of 10 mmol/L of a solution of the test compound in DMSO was adjusted to be 100 μmol/L with Opti-MEM, 10 μL of the solution was added to each well, and then the mixture was allowed to stand in a carbon dioxide gas incubator at 37° C. for 2 hours. At this time, all the groups were prepared so that the final concentration of DMSO was 0.1 vol % including the group to which the test compound was not added. NanoBRET™ Nano-Glo® Substrate included in the NanoBRET™ Nano-Glo® Detection System was diluted 100-fold with Opti-MEM. After adding 25 μL of the dilution each and stirring for 30 seconds, measurement was performed with an Emission Filter of 460 nm and 620 nm using EnVision (PerkinElmer). The BRET ratio of 10 μmol/L for each test compound was calculated using the following formula. The experiment was performed by n=3 and the average value was calculated.
BRET ratio={(A/B)−(C/D)}×1000 • A: value at 620 nm filter of the well with addition of test compound and 618 Ligand • B: value at 460 nm filter of the well with addition of test compound and 618 Ligand • C: value at 620 nm filter of the well without addition of test compound or 618 Ligand • D: value at 460 nm filter of the well without addition of test compound or 618 Ligand
For comparison with the known comparative compound 1, the enhancement of the BET-DCAF16 interaction was verified by the same method as in test example 7. However, for the purpose of system optimization, bortezomib was changed to Neddylation inhibitor MLN4924 (Code No. HY-10484, MedChem Express), and the dilution ratio of NanoBRET™ Nano-Glo® Substrate was set to 200-fold. The BRET ratio of 1.0 μmol/L of each test compound was calculated, and the results are shown as in Table 23 below.

[2] = test system: MYC mRNA expression in SU-DHL-4 cells; assay: Suppressive effect on MYC mRNA expression (Test Example 2); format: cell-based, human; conditions: test compound 100 nmol/L, 6 hours, qRT-PCR corrected by ACTB, GAPDH; for inhibition at 0.1 µM: Homo sapiens, HPRT1, read-out: Suppression Rate of MYC mRNA Expression (%); for Suppression Rate of MYC mRNA Expression (%): HPRT1
Method in brief: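 SU-DHL-4 cells were treated for 6 h at 37 °C with compound (0.1% DMSO final). MYC mRNA was measured by TaqMan qRT-PCR and normalised to the geometric mean of ACTB, GAPDH and HPRT1. Suppression was calculated relative to untreated wells.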

| Structure (SMILES) | BRET Ratio [1] | inhibition at 0.1 µM [2] | Suppression Rate of MYC mRNA Expression (%) [2] |
| --- | --- | --- | --- |
| CCC(=O)N1c2ccccc2[C@H](Nc2ccc(C(=O)NCCCNC(=O)c3ccc(C4=N[C@@H](CC(=O)OC(C)(C)C)c5nnc(C)n5-c5sc(C)c(C)c54)cc3)cc2)C[C@@H]1C [Compound 1h, tert-Butyl 2-[(S)-2,3,9-trimethyl-4-(4-{[3-(4-{[(2S,4R)-2-methyl-1-propionyl-1,2,3,4-tetrahydroquinolin-4-yl]amino}benzamide)propyl]carbamoyl}phenyl)-6H-thieno[3,2-f][1,2,4]triazolo[4,3-a][1,4]diazepin-6-yl]acetate] | 10.95 |  |  |
| Cc1sc2c(c1C)C(c1ccc(C(=O)NCc3cn(-c4ccc(C5=N[C@@H](CC(=O)OC(C)(C)C)c6nnc(C)n6-c6sc(C)c(C)c65)cc4)nn3)cc1)=N[C@@H](CC(=O)OC(C)(C)C)c1nnc(C)n1-2 [Compound 3b, tert-Butyl 2-[(S)-4-(4-{4-[(4-{(S)-6-[2-(tert-butoxy)-2-oxoethyl]-2,3,9-trimethyl-6H-thieno[3,2-f][1,2,4]triazolo[4,3-a][1,4]diazepin-4-yl}benzamide)methyl]-1H-1,2,3-triazol-1-yl}phenyl)-2,3,9-trimethyl-6H-thieno[3,2-f][1,2,4]triazolo[4,3-a][1,4]diazepin-6-yl]acetate] | 9.69 |  |  |
| CCC(=O)N1c2ccccc2[C@H](Nc2ccc(NC(=O)CCCC(=O)NC3CCC(N[C@@H]4C[C@H](C)N(C(=O)CC)c5ccccc54)CC3)cc2)C[C@@H]1C (stereo partly drawn) [Compound 7o, N^1-((1R,4r)-4-(((2S,4R)-2-Methyl-1-propionyl-1,2,3,4-tetrahydroquinolin-4-yl)amino)cyclohexyl)-N^5-(4-(((2S,4R)-2-methyl-1-propionyl-1,2,3,4-tetrahydroquinolin-4-yl)amino)phenyl)glutaramide] | 13.00 |  | 97.4% |
| CCC(=O)N1c2ccccc2[C@H](Nc2ccc(-n3cc(CCNC(=O)[C@H]4CC[C@H](N[C@@H]5C[C@H](C)N(C(=O)CC)c6ccccc65)CC4)nn3)cc2)C[C@@H]1C [Compound 8a, (1R,4r)-4-(((2S,4R)-2-Methyl-1-propionyl-1,2,3,4-tetrahydroquinolin-4-yl)amino)-N-(2-(1-(4-(((2S,4R)-2-methyl-1-propionyl-1,2,3,4-tetrahydroquinolin-4-yl)amino)phenyl)-1H-1,2,3-triazol-4-yl)ethyl)cyclohexane-1-carboxamide] | 12.45 |  |  |
| CCC(=O)N1c2ccccc2[C@H](Nc2ccc(NC(=O)CNC(=O)N[C@H]3CC[C@H](N[C@@H]4C[C@H](C)N(C(=O)CC)c5ccccc54)CC3)cc2)C[C@@H]1C [Compound 8j, 2-(3-((1R,4R)-4-(((2S,4R)-2-Methyl-1-propionyl-1,2,3,4-tetrahydroquinolin-4-yl)amino)cyclohexyl)ureido)-N-(4-(((2S,4R)-2-methyl-1-propionyl-1,2,3,4-tetrahydroquinolin-4-yl)amino)phenyl)acetamide] | 11.91 |  | 97.2% |
| CCC(=O)N1c2ccccc2[C@H](Nc2ccc(NC(=O)CCCC(=O)NC3CCN(Cc4cc(O)cc(-c5c(C)noc5C)c4)CC3)cc2)C[C@@H]1C [Compound 12c, N^1-(1-(3-(3,5-Dimethylisoxazol-4-yl)-5-hydroxybenzyl)piperidin-4-yl)-N^5-(4-(((2S,4R)-2-methyl-1-propionyl-1,2,3,4-tetrahydroquinolin-4-yl)amino)phenyl)glutaramide] | 13.16 | 97.8% |  |
| CCC(=O)N1c2ccccc2[C@H](Nc2ccc(NC(=O)CCCC(=O)NC3CCC(Cn4cc(-c5c(C)noc5C)ccc4=O)CC3)cc2)C[C@@H]1C (stereo partly drawn) [Compound 16p, N^1-((1r,4r)-4-((5-(3,5-Dimethylisoxazol-4-yl)-2-oxopyridin-1(2H)-yl)methyl)cyclohexyl)-N5-(4-(((2S,4R)-2-methyl-1-propionyl-1,2,3,4-tetrahydroquinolin-4-yl)amino)phenyl)glutaramide] |  |  | 96.2% |
| CCC(=O)N1c2ccccc2[C@H](Nc2ccc(NC(=O)CCCC(=O)Nc3ccc(Cn4cc(-c5c(C)noc5C)ccc4=O)cc3)cc2)C[C@@H]1C [Compound 17a, N^1-(4-((5-(3,5-Dimethylisoxazol-4-yl)-2-oxopyridin-1(2H)-yl)methyl)phenyl)-N5-(4-(((2S,4R)-2-methyl-1-propionyl-1,2,3,4-tetrahydroquinolin-4-yl)amino)phenyl)glutaramide] |  | 96.2% |  |
| Cc1sc2c(c1C)C(c1ccc(Cl)cc1)=N[C@@H](CC(=O)NCCOCCOCCOCCOCCOCCOCCOCCNC(=O)C[C@@H]1N=C(c3ccc(Cl)cc3)c3c(sc(C)c3C)-n3c(C)nnc31)c1nnc(C)n1-2 [compound 2, reference compound] |  |  | 57.7% |

Now from value to molecule, other results behind:

| BRET Ratio [1] | Structure (SMILES) | inhibition at 0.1 µM [2] | Suppression Rate of MYC mRNA Expression (%) [2] |
| --- | --- | --- | --- |
| 14.93 | CCC(=O)N1c2ccccc2[C@H](Nc2ccc(C(=O)NCC(=O)CNC(=O)c3ccc(N[C@@H]4C[C@H](C)N(C(=O)CC)c5ccccc54)cc3)cc2)C[C@@H]1C [Compound 1l, N,N′-(2-Oxopropane-1,3-diyl)bis(4-{[(2S,4R)-2-methyl-1-propionyl-1,2,3,4-tetrahydroquinolin-4-yl]amino}benzamide)] | 98.5% |  |
| 14.46 | CCC(=O)N1c2ccccc2[C@H](Nc2ccc(C(=O)NCc3cn(-c4ccc(N[C@@H]5C[C@H](C)N(C(=O)CC)c6ccccc65)cc4)nn3)cc2)C[C@@H]1C [Compound 3a, 4-{[(2S,4R)-2-Methyl-1-propionyl-1,2,3,4-tetrahydroquinolin-4-yl]amino}-N-{[1-(4-{[(2S,4R)-2-methyl-1-propionyl-1,2,3,4-tetrahydroquinolin-4-yl]amino}phenyl)-1H-1,2,3-triazol-4-yl]methyl}benzamide] | 98.1% |  |
| 9.58 | CCC(=O)N1c2ccccc2[C@H](Nc2ccc(C(=O)N3CCn4c(-c5ccc(N[C@@H]6C[C@H](C)N(C(=O)CC)c7ccccc76)cc5)cnc4C3)cc2)C[C@@H]1C [Compound 3e, 1-[(2S,4R)-2-Methyl-4-({4-[3-(4-{[(2S,4R)-2-methyl-1-propionyl-1,2,3,4-tetrahydroquinolin-4-yl]amino}phenyl)-5,6,7,8-tetrahydroimidazo[1,2-a]pyrazine-7-carbonyl]phenyl}amino)-3,4-dihydroquinolin-1(2H)-yl]propan-1-one] | 98.3% |  |
| 12.62 | CCC(=O)N1c2ccccc2[C@H](Nc2ccc(NC(=O)CCCC(=O)Nc3ccc(N[C@@H]4C[C@H](C)N(C(=O)CC)c5ccccc54)cc3)cc2)C[C@@H]1C [Compound 6k, N^1,N^5-Bis(4-(((2S,4R)-2-methyl-1-propionyl-1,2,3,4-tetrahydroquinolin-4-yl)amino)phenyl)glutaramide] | 97% |  |
| 11.57 | CCC(=O)N1c2ccccc2[C@H](Nc2ccc(NC(=O)N3CCN(C(=O)C4CCC(N[C@@H]5C[C@H](C)N(C(=O)CC)c6ccccc65)CC4)CC3)cc2)C[C@@H]1C (stereo partly drawn) [Compound 7p, 4-((1R,4r)-4-(((2S,4R)-2-Methyl-1-propionyl-1,2,3,4-tetrahydroquinolin-4-yl)amino)cyclohexane-1-carbonyl)-N-(4-(((2S,4R)-2-methyl-1-propionyl-1,2,3,4-tetrahydroquinolin-4-yl)amino)phenyl)piperazine-1-carboxamide] |  | 97.9% |
